Measurements as given in patent US20060057104A1, “Methods for stimulating tlr irf3 pathways for inducing anti-microbial, anti-inflammatory and anticancer responses” (THE Regents of the University of California Office of the …, priority 2002, published 2006).

Key:
MHV68 = MHV68 viral replication assay in wild-type and IFNAR−/− BMMs (M9 western blot); format: cell-based, Murine gammaherpesvirus 68; settings: MOI 5, 48 h, co-treatment
Method: (B) For viral replication assays, BMMs were simultaneously stimulated with PAMPs (10, 1, or 0.1 ng/ml lipid A, or 1, 0.1, or 0.01 μg/ml poly(I:C)) and infected with MHV68 using a multiplicity of infection of five. Cell lysates were harvested at 48 h postinfection and subjected to Western blotting analysis using an Ab specific to the MHV68 protein M9. Actin levels were also assayed to ensure equal loading. The data represent two independent experiments.
A129 (IFNAR-1^−/−) (Muller, U., U. Steinhoff, L. F. L. Reis, S. Hemmi, J. Pavlovic, R. M. Zinkernagel, and M. Aguet. 1994. Functional role of type I and type II interferons in antiviral defense. Science 264:1918) and B6129SF2/J wild type control mice were obtained from B&K Universal Ltd. and Jackson Laboratories, respectively. C57/B6 mice were used for all experiments not involving the A129 mice (Jackson Laboratories). Specific TLR activation was achieved using F-583 (Rd mutant) E. coli lipid A for TLR4 (Sigma), CpG oligonucleotides for TLR9 (Invitrogen) and poly I:C for TLR3 (Pharmacia). […]
Using the MHV68 protein M9 as a readout for viral load, we show in FIG. 13B that the antiviral activity of macrophage cells infected with MHV68 was abolished in the absence of IFNAR despite co-treatment with either lipid A or poly I:C. […]

[1] = tested on: RAW 264.7 murine macrophage cell line; test: Apoptosis by TUNNEL assay in RAW 264.7 cells, laser scanner cytometry; format: cell-based; settings: RAW 264.7, two 24 h intervals; 10 ng/ml Lipid A or 10 mg/ml poly I:C
Method: The RAW 264.7 murine macrophage cell line was treated for two 24 h intervals with media alone (control), 10 ng/ml Lipid A (Lipid A) or 10 mg/ml poly I:C. In addition, as a positive control for apoptosis, another set of cells was treated with 3% H2O2 for 2 hours. Following fixation and permeablization, apoptosis was measured by the TUNNEL assay using the Death kit (Roche). Apoptotic cells are visualized by an increase in fluorescence (FITC) and detected by laser scanner cytometry (LSC). […] The cell cycle is divided into G1 (red), S-phase (yellow) and G2/M (blue). Thus, TLR3/4 activation promotes apoptosis at all stages of the cell cycle (FIG. 16).

BMMs = test: Q-PCR gene expression in BMMs stimulated with TLR agonists (Example 1); format: cell-based, murine; settings: for immediate early upregulation of IFNβ, IP10 and RANTES: BMMs, lipid A 1 ng/mL, PGN 10 μg/mL, poly I:C 1 μg/ml, CpG 100 nM, 1 hr
Method: (C) BMM's were stimulated with the following TLR-agonists: lipid A (1 ng/mL), peptidoglycan (PGN) (10 μg/mL), poly I:C (I μg/ml), or CpG (100 nM) for 30 min, and cell extracts were used for an in vitro kinase assay using GST-c-jun as a substrate (upper left), identical simulations were repeated for I hr, and RNA was harvested, and used for Q-PCR analysis.
(A) BMMs were stimulated for the indicated time points with the following TLR-agonists: lipid A (1 ng/ml), PGN (20 μg/ml), poly I:C (1 μg/ml), or CpG (100 nM), and RNA was harvested and used for Q-PCR analysis.
Murine bone marrow-derived macrophages (BMMs) were differentiated from marrow from 6-10 week old C57B/6 mice as previously described (Chin, A. I., Dempsey, P. W., Beuhn, K., Miller, J. F., Xu, Y., and Cheng, G. (2002), Nature 416, 190-194). BMMs were maintained in 1× DMEM, 10% fetal bovine serum, 1% penicillin/streptomycin, and 30% L929 conditioned medium, and purity was assayed to be 94-99% CD11b^+. The RAW 264.7 murine macrophage cell line (ATCC: TIB-71) was maintained in 1× DMEM with 10% fetal bovine serum and 1% penicillin/streptomycin. […]
RNA was isolated for both Northern blotting and quantitative real-time PCR (Q-PCR) using a standard guanidium isothiocyanate method. […] For Q-PCR, RNA was quantitated and 2 μg of RNA was used to make cDNA templates using Superscript II (Invitrogen) according the manufactuors instruction with either oligo-dT or random hexamer as primers. […]
We then investigated the TLR-specificity of gene expression in BMMs using specific agonists for TLR4 (lipid A), TLR2 (peptioglycan), TLR3 (poly I:C) and TLR9 (CpG). In order to account for differences in binding affinity and receptor expression, the concentrations of TLR ligands used for stimulation were titrated to produce roughly equivalent activation of the JNK pathway as determined by GST-c-Jun in vitro kinase assay (FIG. 2C, upper left).

Row | Substance | antiviral activity against MHV68 in the absence of IFNAR (MHV68) | increase in apoptotic cells [1] [fold] | immediate early upregulation of IFNβ, IP10 and RANTES (BMMs) | gene induction in TLR4-null BMMs (BMMs; BMMs from C57BL/10ScCr mice (null mutation in TLR4 gene))
1 | poly I:C | abolished | 100 | immediate early upregulation | 
2 | lipid A | abolished | 10 | immediate early upregulation | No gene induction
